US4028396A, “16,16-Spirocycloalkyl prostaglandin derivatives” (American Cyanamid Company, priority 1975, dated 1977)

What was measured:
[1] = tested on: bronchospasms elicited by histamine; experiment: bronchodilator activity, Konzett procedure, histamine bronchospasm; assay type: in vivo, guinea pigs; settings: Cavia porcellus; three logarithmic cumulative intravenous doses; spasmogen histamine
Procedure: (§1) The compounds of this invention are useful as bronchodilators for the treatment of asthma and chronic bronchitis. Bronchodilator activity is determined in guinea pigs against bronchospasms elicited by intravenous injections of 5-hydroxytryptamine, histamine or acetylcholine by the Konzett procedure. [See J. Lulling, P. Lievens, F. El Sayed and J. Prignot, Arzneimittel-Forschung, 18, 955 (1968).]
(§2) In Table A which follows bronchodilator activity for representative compounds of this invention against one or more of three spasmogenic agents is expressed as an ED50 determined from the results obtained with three logarithmic cumulative intravenous doses.

[2] = tested on: bronchospasms elicited by acetylcholine; experiment: bronchodilator activity, Konzett procedure, acetylcholine bronchospasm; assay type: in vivo, guinea pigs; settings: Cavia porcellus; three logarithmic cumulative intravenous doses; spasmogen acetylcholine
Procedure: as §1, §2

[3] = tested on: basal gastric acid secretion; experiment: inhibition of gastric acid secretion in the acute gastric fistula rat; assay type: in vivo, Female Sprague-Dawley rats; settings: 10 mg./kg., intraduodenal
Procedure: The compounds of this invention are also useful as inhibitors of gastric acid secretion and peptic ulcer formation and may be used for the treatment of gastric hyperacidity, gastric erosion, and peptic ulcer. Inhibition of basal gastric acid secretion can be determined by the following procedure.
Female Sprague-Dawley rats weighing 140-160 grams are fasted in individual cages for 18-24 hours. The rats are then lightly anesthetized with ether and their front teeth extracted to avoid destruction of the plastic cannula. A midline incision is then made and the stomach and duodenum exposed. A flanged polyvinyl tube is inserted into the fundic portion of the stomach and secured with a purse string suture line using 4-0 Mersilene. The rat is then dosed by injection of the compound into the duodenum (1.0 ml. per 100 gram body weight). After dosing, the abdominal wall and skin are closed using metal wound clips. The rat is replaced in a cage containing a longitudinal slit to allow the polyvinyl tube to hang freely. An 8 ml. plastic collecting tube is attached to the flanged cannula and hangs freely below the cage. The first 30 minute sample is discarded designating this time as zero. The collecting tube is attached again and samples removed at the end of 60 and 120 minutes. The hourly samples are then transferred to a 15 ml. centrifuge and centrifuged for 5-10 minutes. Total and sediment volume are then recorded with supernatant volume being used as volume of secretion. A 1 ml. or less aliquot is then removed and placed in a 50 ml. beaker containing 10 ml. of distilled water. This sample is then titrated using 0.01N NaOH to pH 7.0 using a Beckman zeromatic pH meter. Volume, tritratable acidity (meq/L) and total acid output (ueg/hour) are recorded. Percent inhibition is determined by comparison with the appropriate control. Groups of three rats were used for preliminary testing, and groups of six rates were used for dose-response evaluations. All compounds are administered in a vehicle consisting of 0.5% methocel, 0.4% tween 80, and saline at a constant volume of 1 ml./100 gram rat. Samples are dispersed by sonification. Percent inhibition is calculated on basis of concurrent vehicle control.
In Table B which follows is given the effect on total acid output after 60 minutes (response A) and 120 minutes (response B) for various doses of representative compounds of this invention.

[4] = tested on: bronchospasms elicited by 5-hydroxytryptamine; experiment: bronchodilator activity, Konzett procedure, 5-hydroxytryptamine bronchospasm; assay type: in vivo, guinea pigs; settings: Cavia porcellus; three logarithmic cumulative intravenous doses; spasmogen 5-hydroxytryptamine
Procedure: as §1, §2

[5] = tested on: basal gastric acid secretion; experiment: inhibition of gastric acid secretion in the acute gastric fistula rat; assay type: in vivo, Female Sprague-Dawley rats; settings: oral
[6] = tested on: gastric acid output stimulated by histamine; experiment: gastric fistula dog, gastric acid output stimulated by histamine; assay type: in vivo; settings: oral
Procedure: (§3) With the former agent a dose of 0.16 mg./kg. is sufficient to inhibit more than 50% of the control output.

[7] = tested on: gastric acid output stimulated by gastrin tetrapeptide; experiment: gastric fistula dog, gastric acid output stimulated by gastrin tetrapeptide; assay type: in vivo; settings: oral, 0.16 mg./kg., % of the control output
Procedure: as §3

[8] = tested on: systemic arterial blood pressure; settings: in vivo; cited from earlier work
[9] = tested on: mobilization of free fatty acids; settings: cited from earlier work
smooth muscle = settings: cited from earlier work
[10] = cited from earlier work

| Structure (SMILES) | ED50 [1] [mg/kg] | ED50 [2] [mg/kg] | %-Inhibition of Total Acid Output ([3]; after 60 min.) [%] | %-Inhibition of Total Acid Output ([3]; after 120 min.) [%] | ED50 [4] [mg/kg] | %-Inhibition of Total Acid Output ([5]; 10 mg./kg., after 60 min.) [%] | %-Inhibition of Total Acid Output ([5]; 10 mg./kg., after 120 min.) [%] | also measured |
| --- | --- | --- | --- | --- | --- | --- | --- | --- |
| CCCCC1([C@@H](O)/C=C/[C@H]2CCC(=O)[C@@H]2CCCCCCC(=O)O)CCC1 (relative stereo) [9-oxo-15-epi-hydroxy-16,16-trimethylene-13-trans-prostenoic acid] | 0.014 | 0.003 | 98 | 92 | 0.135 | 85 | 61 |  |
| CCCCC1([C@H](O)/C=C/[C@H]2CCC(=O)[C@@H]2CCCCCCC(=O)O)CCC1 (relative stereo) [9-oxo-15-hydroxy-16,16-trimethylene-13-trans-prostenoic acid] | 0.0024 | 0.048 | 98 | 75 | 0.02 |  |  | %-Inhibition of Total Acid Output ([5]; 2.5 mg./kg., after 60 min.): 86%; %-Inhibition of Total Acid Output ([5]; 2.5 mg./kg., after 120 min.): 83% |
| CCCCC1([C@H](O)/C=C/[C@H]2[C@H](O)CC(=O)[C@@H]2C/C=C\CCCC(=O)O)CCC1 (relative stereo) [11α,15-dihydroxy-9-oxo-16,16-trimethylene-5-cis,13-trans-prostadienoic acid] | 0.0015 | 0.0011 | 100 | 100 | 0.0025 | 100 | 100 | %-Inhibition of Total Acid Output ([5]; 0.63 mg./kg., after 60 min.): 30%; %-Inhibition of Total Acid Output ([5]; 0.63 mg./kg., after 120 min.): 35%; %-Inhibition of Total Acid Output ([5]; 1.25 mg./kg., after 60 min.): 40%; %-Inhibition of Total Acid Output ([5]; 1.25 mg./kg., after 120 min.): 36%; %-Inhibition of Total Acid Output ([5]; 2.5 mg./kg., after 60 min.): 87%; %-Inhibition of Total Acid Output ([5]; 2.5 mg./kg., after 120 min.): 74%; inhibition of the stimulation of gastric acid output by histamine [6]: will inhibit the stimulation of gastric acid output; inhibition of gastric acid output stimulated by gastrin tetrapeptide [7]: more than 50% |
| CCCCC1([C@@H](O)/C=C/[C@H]2[C@H](O)CC(=O)[C@@H]2C/C=C\CCCC(=O)O)CCC1 (relative stereo) [11α,15-epi-dihydroxy-9-oxo-16,16-trimethylene-5-cis,13-trans-prostadienoic acid] | 0.048 | 0.032 | 98 | 86 | 0.305 | 32 | 39 |  |
| CCCCC1([C@@H](O)/C=C/[C@H]2CCC(=O)[C@@H]2CCCCCCC(=O)OCC)CCC1 (relative stereo) [ethyl 15-epi-hydroxy-9-oxo-16,16-trimethylene-13-trans-prostenoate] |  |  | 98 | 87 |  | 77 | 67 |  |
| CCCCC1([C@H](O)/C=C/[C@H]2CCC(=O)[C@@H]2CCCCCCC(=O)OCC)CCC1 (relative stereo) [ethyl 15-hydroxy-9-oxo-16,16-trimethylene-13-trans-prostenoate] |  |  | 100 | 100 |  | 48 | 38 |  |
| CCCCC[C@H](O)/C=C/[C@H]1[C@H](O)CC(=O)[C@@H]1CCCCCCC(=O)O [PGE1] |  |  |  |  |  |  |  | potency in causing vasodepression [8]: extremely potent; potency as antilipolytic agent [9]: potent; potency in causing smooth muscle stimulation (smooth muscle): extremely potent |
| CCCCC[C@H](O)/C=C/[C@H]1[C@H](O)CC(=O)[C@@H]1C/C=C\CCCC(=O)O [prostaglandin E2] |  |  |  |  |  |  |  | potency in causing vasodepression [8]: extremely potent; time within which the solution must be used ([10]; room temperature): one day; time within which saline solution should preferably be used ([10]; saline solution stored at 40° C. (so in the source), preferably): 2 to 3 days; time within which saline solution should be used ([10]; saline solution stored at 40° C. (so in the source)): a week; decrease in biological activity on storage ([10]; ten days storage at 4° C., concentration 100 mg./ml.): significant decrease; potency as antilipolytic agent [9]: potent; potency in causing smooth muscle stimulation (smooth muscle): extremely potent |
